Assay results as given in patent publication US6743753B2, “Herbicidal compositions” (priority 1998, dated 2004).

What was measured:
Type in all cases: in vivo
Conditions in all cases: 28 DAT
[1] = system: Leptochloa chinensis (LEFCH); assay: Post-emergence treatment of LEFCH, visual assessment of weed control
From the text: (§1) Seed of various weed species were sown and grown up to a 2-4 leaves stage. The said weeds are Echinochloa crus-galli (hereafter ECGCH), Leptochloa chinensis (hereafter LEFCH), Monochoria vaginalis (hereafter MOOVA) and Cyperus difformis (hereafter CYPDI).
(§2) Mixtures of pyribenzoxim and a partner herbicide were applied post emergence in a water diluted form using a laboratory sprayer. A visual assessment was made 28 days after treatment (DAT).
(§3) In the tables that follow ‘dose’ represents the dose rate in grammes per hectare of the active ingredient used; the figures for the weed control are percentage reductions in growth when compared with untreated controls; and CpdA represents pyribenzoxim.

[2] = system: Cyperus difformis (CYPDI); assay: Post-emergence treatment of CYPDI, visual assessment of weed control
From the text: as §1, §2, §3

[3] = system: Monochoria vaginalis (MOOVA); assay: Post-emergence treatment of MOOVA, visual assessment of weed control
From the text: as §1, §2, §3

[4] = system: Echinochloa crus-galli (ECGCH); assay: Post-emergence treatment of ECGCH, visual assessment of weed control
From the text: as §1, §2, §3

## CC(Oc1ccc(Oc2nc3ccc(Cl)cc3o2)cc1)C(=O)O (racemic) [fenoxaprop, [(±)-2-[4-(6-chloro-1,3-benzoxazol-2-yloxy)phenoxy]propionic acid]
[1]; Table 2, fenoxaprop 15 g/ha alone
  weed control, percentage reduction in growth vs untreated controls: 0%
[1]; Table 2, fenoxaprop 30 g/ha alone
  weed control, percentage reduction in growth vs untreated controls: 0%
[1]; Table 2, fenoxaprop 60 g/ha alone
  weed control, percentage reduction in growth vs untreated controls: 0%
[2]; Table 10, fenoxaprop 30 g/ha alone
  weed control, percentage reduction in growth vs untreated controls: 0%
[2]; Table 10, fenoxaprop 60 g/ha alone
  weed control, percentage reduction in growth vs untreated controls: 0%
[3]; Table 7, MOOVA (2 leaf), fenoxaprop 15 g/ha alone
  weed control, percentage reduction in growth vs untreated controls: 0%
[3]; Table 7, MOOVA (2 leaf), fenoxaprop 30 g/ha alone
  weed control, percentage reduction in growth vs untreated controls: 0%
[3]; Table 7, MOOVA (2 leaf), fenoxaprop 60 g/ha alone
  weed control, percentage reduction in growth vs untreated controls: 30%
[3]; Table 7, MOOVA (2 leaf), fenoxaprop 120 g/ha alone
  weed control, percentage reduction in growth vs untreated controls: 70%

## COc1cc(OC)nc(Oc2cccc(Oc3nc(OC)cc(OC)n3)c2C(=O)ON=C(c2ccccc2)c2ccccc2)n1 [CpdA, benzophenone O-{2,6-bis[(4,6-dimethoxypyrimidyl)oxy]benzoyl}oxime]
[4]; CpdA 7.5 g/ha alone
  weed control, percentage reduction in growth vs untreated controls: 20%
[1]; Table 2, CpdA 15 g/ha alone
  weed control, percentage reduction in growth vs untreated controls: 0%
[1]; Table 2, CpdA 30 g/ha alone
  weed control, percentage reduction in growth vs untreated controls: 30%
[1]; Table 2, CpdA 60 g/ha alone
  weed control, percentage reduction in growth vs untreated controls: 30%
[1]; Table 3, CpdA 15 g/ha alone
  weed control, percentage reduction in growth vs untreated controls: 0%
[1]; Table 3, CpdA 30 g/ha alone
  weed control, percentage reduction in growth vs untreated controls: 30%
[1]; Table 3, CpdA 60 g/ha alone
  weed control, percentage reduction in growth vs untreated controls: 30%
[1]; Table 4, LEFCH (2 leaf), CpdA 15 g/ha alone
  weed control, percentage reduction in growth vs untreated controls: 50%
[1]; Table 5, LEFCH (2 leaf), CpdA 7.5 g/ha alone
  weed control, percentage reduction in growth vs untreated controls: 30%
[1]; Table 5, LEFCH (2 leaf), CpdA 15 g/ha alone
  weed control, percentage reduction in growth vs untreated controls: 50%
[1]; Table 6, LEFCH (2 leaf), CpdA 7.5 g/ha alone
  weed control, percentage reduction in growth vs untreated controls: 30%
[1]; Table 6, LEFCH (2 leaf), CpdA 15 g/ha alone
  weed control, percentage reduction in growth vs untreated controls: 50%
[2]; Table 10, CpdA 15 g/ha alone
  weed control, percentage reduction in growth vs untreated controls: 60%
[2]; Table 11, CpdA 7.5 g/ha alone
  weed control, percentage reduction in growth vs untreated controls: 0%
[3]; Table 7, MOOVA (2 leaf), CpdA 15 g/ha alone
  weed control, percentage reduction in growth vs untreated controls: 0%
[3]; Table 7, MOOVA (2 leaf), CpdA 30 g/ha alone
  weed control, percentage reduction in growth vs untreated controls: 70%
[3]; Table 8, MOOVA (2 leaf), CpdA 15 g/ha alone
  weed control, percentage reduction in growth vs untreated controls: 100%
[3]; Table 8, MOOVA (2 leaf), CpdA 30 g/ha alone
  weed control, percentage reduction in growth vs untreated controls: 100%
[3]; Table 9, MOOVA (2 leaf), CpdA 7.5 g/ha alone
  weed control, percentage reduction in growth vs untreated controls: 100%

## Cc1ccc(C(=O)COc2c(C(=O)c3ccc(Cl)c(C)c3Cl)c(C)nn2C)cc1 [benzofenap, 2-[4-(2,4-dichloro-m-toluoyl)-1,3-dimethylpyrazol-5-yloxy]-4-′methylacetophenone]
[1]; Table 6, LEFCH (2 leaf), benzofenap 600 g/ha alone
  weed control, percentage reduction in growth vs untreated controls: 10%
[1]; Table 6, LEFCH (2 leaf), benzofenap 1200 g/ha alone
  weed control, percentage reduction in growth vs untreated controls: 20%
[3]; Table 9, MOOVA (2 leaf), benzofenap 150 g/ha alone
  weed control, percentage reduction in growth vs untreated controls: 0%
[3]; Table 9, MOOVA (2 leaf), benzofenap 300 g/ha alone
  weed control, percentage reduction in growth vs untreated controls: 0%

## COc1cc(OC)nc(NC(=O)NS(=O)(=O)Cc2ccccc2C(=O)O)n1 [bensulfuron, α-(4,6-dimethoxypyrimidin-2-ylcarbamoylsulfamoyl)-o-toluic acid]
[4]; bensulfuron 6.5 g/ha alone
  weed control, percentage reduction in growth vs untreated controls: 30%
[4]; bensulfuron 13 g/ha alone
  weed control, percentage reduction in growth vs untreated controls: 50%
[4]; bensulfuron 25 g/ha alone
  weed control, percentage reduction in growth vs untreated controls: 70%
[1]; Table 4, LEFCH (2 leaf), bensulfuron 25 g/ha alone
  weed control, percentage reduction in growth vs untreated controls: 0%
[1]; Table 4, LEFCH (2 leaf), bensulfuron 50 g/ha alone
  weed control, percentage reduction in growth vs untreated controls: 0%

## CC(C)N1C(=O)c2ccccc2NS1(=O)=O [bentazone, 3-isopropyl-1H-2,1,3-benzothiadiazin-4(3H)-one 2,2-dioxide]
[1]; Table 3, bentazone 375 g/ha alone
  weed control, percentage reduction in growth vs untreated controls: 0%
[1]; Table 3, bentazone 750 g/ha alone
  weed control, percentage reduction in growth vs untreated controls: 20%
[1]; Table 3, bentazone 1500 g/ha alone
  weed control, percentage reduction in growth vs untreated controls: 20%
[2]; Table 11, bentazone 375 g/ha alone
  weed control, percentage reduction in growth vs untreated controls: 80%
[2]; Table 11, bentazone 750 g/ha alone
  weed control, percentage reduction in growth vs untreated controls: 80%
